From US20230250129A1, “NEUROACTIVE STEROIDS AND COMPOSITIONS THEREOF” (Sage Therapeutics, Inc., priority 2020, published 2023)

Target: [35S]-TBPS binding, rat brain cortical membranes (GABAA receptor)
Test: Steroid inhibition of [35S]-TBPS binding
Details: 3 nM [35S]-TBPS, in the presence of 5 mM GABA, 90 min at room temp
Protocol: Steroid Inhibition of TBPS Binding
[^35S]-t-Butylbicyclophosphorothionate (TBPS) binding assays using rat brain cortical membranes in the presence of 5 mM GABA has been described (Gee et al, J. Pharmacol. Exp. Ther. 1987, 241, 346-353; Hawkinson et al, Mol. Pharmacol. 1994, 46, 977-985; Lewin, A. H et al., Mol. Pharmacol. 1989, 35, 189-194).
Briefly, cortices are rapidly removed following decapitation of carbon dioxide-anesthetized Sprague-Dawley rats (200-250 g). The cortices are homogenized in 10 volumes of ice-cold 0.32 M sucrose using a glass/teflon homogenizer and centrifuged at 1500×g for 10 min at 4° C. The resultant supernatants are centrifuged at 10,000×g for 20 min at 4° C. to obtain the P2 pellets. The P2 pellets are resuspended in 200 mM NaCl/50 mM Na—K phosphate pH 7.4 buffer and centrifuged at 10,000×g for 10 min at 4° C. This washing procedure is repeated twice and the pellets are resuspended in 10 volumes of buffer. Aliquots ([…]) of the membrane suspensions are incubated with 3 nM [^35S]-TBPS and […] aliquots of test drug dissolved in dimethyl sulfoxide (DMSO) (final 0.5%) in the presence of 5 mM GABA. The incubation is brought to a final volume of 1.0 mL with buffer. Nonspecific binding is determined in the presence of […] and ranged from 15 to 25%. Following a 90 min incubation at room temp, the assays are terminated by filtration through glass fiber filters (Schleicher and Schuell No. 32) using a cell harvester (Brandel) and rinsed three times with ice-cold buffer. Filter bound radioactivity is measured by liquid scintillation spectrometry. Non-linear curve fitting of the overall data for each drug averaged for each concentration is done using Prism (GraphPad). […] The concentration of test compound producing 50% inhibition (IC50) of specific binding and the maximal extent of inhibition (Imax) are determined for the individual experiments with the same model used for the overall data and then the means±SEM.s of the individual experiments are calculated.
Various compounds are or can be screened to determine their potential as modulators of [^35S]-TBPS binding in vitro. These assays are or can be performed in accordance with the above

Structure (SMILES)	IC50
CC[C@]12CC[C@@](C)(O)C[C@H]1CC[C@H]1[C@@H]3CCC[C@H](C(=O)Nc4ccccc4)[C@@]3(C)CC[C@@H]12 [Compound 99, (1S,4aS,4bS,6aR,8R,10aS,10bS,12aS)-10a-ethyl-8-hydroxy-8,12a-dimethyl-N-phenyloctadecahydrochrysene-1-carboxamide]	< 100 nM
COC[C@@]1(O)CC[C@H]2[C@H](CC[C@@H]3[C@@H]2CC[C@]2(C)[C@@H](C(=O)Nc4cnc(C#N)nc4)CC[C@@H]32)C1 [Compound 89, (3R,5R,8R,9R,10S,13S,14S,17S)—N-(2-cyanopyrimidin-5-yl)-3-hydroxy-3-(methoxymethyl)-13-methylhexadecahydro-1H-cyclopenta[a]phenanthrene-17-carboxamide]	< 100 nM
COC[C@@]1(O)CC[C@H]2[C@H](CC[C@@H]3[C@@H]2CC[C@]2(C)[C@@H](C(=O)Nc4cnc(C#N)cn4)CC[C@@H]32)C1 [Compound 73, (3R,5R,8R,9R,10S,13S,14S,17S)—N-(5-cyanopyrazin-2-yl)-3-hydroxy-3-(methoxymethyl)-13-methylhexadecahydro-1H-cyclopenta[a]phenanthrene-17-carboxamide]	< 100 nM
CCC[C@@]1(O)CC[C@H]2[C@H](CC[C@@H]3[C@@H]2CC[C@]2(C)[C@@H](C(=O)Nc4ccc(F)cn4)CC[C@@H]32)C1 [Compound 81, (3R,5R,8R,9R,10S,13S,14S,17S)—N-(5-fluoropyridin-2-yl)-3-hydroxy-13-methyl-3-propylhexadecahydro-1H-cyclopenta[a]phenanthrene-17-carboxamide]	< 100 nM
CCOC[C@@]1(O)CC[C@H]2[C@H](CC[C@@H]3[C@@H]2CC[C@]2(C)[C@@H](C(=O)Nc4ccnc(C#N)n4)CC[C@@H]32)C1 [Compound 78, (3R,5R,8R,9R,10S,13S,14S,17S)—N-(2-cyanopyrimidin-4-yl)-3-(ethoxymethyl)-3-hydroxy-13-methylhexadecahydro-1H-cyclopenta[a]phenanthrene-17-carboxamide]	< 100 nM
CCC[C@@]1(O)CC[C@H]2[C@H](CC[C@@H]3[C@@H]2CC[C@]2(C)[C@@H](C(=O)Nc4cnc(C#N)nc4)CC[C@@H]32)C1 [Compound 86, (3R,5R,8R,9R,10S,13S,14S,17S)—N-(2-cyanopyrimidin-5-yl)-3-hydroxy-13-methyl-3-propylhexadecahydro-1H-cyclopenta[a]phenanthrene-17-carboxamide]	100 to 1000 nM
CCOC[C@@]1(O)CC[C@@]2(CC)[C@H](CC[C@H]3[C@@H]4CCC[C@H](C(=O)Nc5cc(C)n(C)n5)[C@@]4(C)CC[C@@H]32)C1 [Compound 100, (4aS,4bS,6aR,8R,10aS,10bS,12aS)—N-(1,5-dimethyl-1H-pyrazol-3-yl)-8-(ethoxymethyl)-0a-ethyl-8-hydroxy-12a-methyloctadecahydrochrysene-1-carboxamide]	< 100 nM
CCOC[C@@]1(O)CC[C@@]2(C)[C@H](CC[C@@H]3[C@@H]2CC[C@]2(C)[C@@H](C(=O)Nc4cnc(C#N)cn4)CC[C@@H]32)C1 [Compound 75, (3R,5R,8R,9S,10S,13S,14S,17S)—N-(5-cyanopyrazin-2-yl)-3-(ethoxymethyl)-3-hydroxy-10,13-dimethylhexadecahydro-1H-cyclopenta[a]phenanthrene-17-carboxamide]	< 100 nM
CCOC[C@@]1(O)CC[C@H]2[C@H](CC[C@@H]3[C@@H]2CC[C@]2(C)[C@@H](C(=O)Nc4nccc(C#N)n4)CC[C@@H]32)C1 [Compound 79, (3R,5R,8R,9R,10S,13S,14S,17S)—N-(4-cyanopyrimidin-2-yl)-3-(ethoxymethyl)-3-hydroxy-13-methylhexadecahydro-1H-cyclopenta[a]phenanthrene-17-carboxamide]	100 to 1000 nM
C[C@H]1C[C@H]2[C@H](CC[C@@H]3[C@@H]2CC[C@]2(C)[C@@H](C(=O)Nc4ccc(C#N)nc4)CC[C@@H]32)C[C@]1(C)O [Compound 85, (2S,3S,5R,8R,9R,10S,13S,14S,17S)—N-(6-cyanopyridin-3-yl)-3-hydroxy-2,3,13-trimethylhexadecahydro-1H-cyclopenta[a]phenanthrene-17-carboxamide]	< 100 nM
